Test results reported in patent US6555650B1, “Cyclic analogs of histatins” (priority 1999, dated 2003).
Positions of bridges follow the written chain, without caps; N, C: chain ends. Residues, ends and D or L forms follow the SMILES beside them. No end group written: not given here.

Tested on: C. albicans
Experiment: not given
Conditions: against C. albicans; cited from earlier work

Molecule	minimum inhibitory concentration (MIC)
histatin-5 [Peptide H-5]	10 µg/mL

Tested on: S. cerevisiae
Experiment: fungistatic MIC assay in antifungal agar
Assay type: cell-based
Conditions: S. cerevisiae, minimum concentration for 100% inhibition after 24 hours at 37° C.
Method: The compounds of Table 1 were tested for fungistatic activity with an assay based on the work of Gordon, Lapa et.al. (18) with the nonpathogenic yeast S. cerevisiae in which ketoconazole is used as control. A semisolid is prepared to which is added serial dilutions of peptide. This antifungal agar is distributed in a well plate, and the S. Cerevisiae inoculum is then added to each well. Both ketokonoazole and H-5 are used as positive controls and buffer is used as a control blank. Minimum inhibitory concentration MIC, i.e. the concentration of the peptide under test which prevents growth, as observed visually, is recorded for each sample so that low values of MIC indicate potent antifungal compounds.
More specifically, stock peptide solutions (600 microliters or 1 ml) were prepared to 10 times the final concentration of the most concentrated test sample in a sodium phosphate buffer (0.01 M0, pH 7.4). Peptide concentrations were determined by UV absorbance at λ=275. Control blanks were also prepared using 1 ml buffer Five serial dilutions were made in sterile culture tubes with buffer to create a range of peptide concentrations. The final volume in each tube was either 300 microliter or 1 ml. Agar medium (2.7 or 4.5 ml) was added to each tube and mixed. Aliquots (1 ml) of each were added to a 24 well plate to give 6 different concentrations of each peptide per plate. […] A stock solution (10 mg/mL DMSO) was diluted 1:49 with buffer. A range of final concentrations of 20 to 0.16 micrograms/ml was tested. In addition, in later analog assays, H-5 was included as a positive peptide control. Histatin 5 was tested in a range from 200 micromolar to 6.3 micromolar. Other analogs were tested at concentrations anywhere from 200 μM down to 0.14 μM ubtil the analog with lowest MIC concentration was identified.
S. cerevisiae cells grown overnight were centrifuged and washed with a 0.85% saline solution, three times. Cell concentration was adjusted to 85% transmission at λ=530 with saline solution. Cells were further diluted 1:19. Inoculant (10 microL) was added to the peptide-containing medium. The cells were incubated on this medium for 24 hours at 37° C. The fungistatic MIC for these compounds was defined as the minimum concentration required to achieve 100% inhibition after 24 hours.

Molecule	MIC range
Arg His His Gly Tyr Lys Cys Lys Phe His Glu Lys His His Cys His Arg Gly Tyr (RHHGYKCKFHEKHHCHRGY; disulfide 7-15 (inferred)) [Db2-180]	1.25-2.5
Arg His His Cys Tyr Lys Arg Lys Phe His Glu Lys His His Cys His Arg Gly (RHHCYKRKFHEKHHCHRG; also: cyclic analogue, ring not given here) [Db3-19]	1.3-2.6
Arg His His Cys Tyr Lys Arg Lys His His Glu Lys His His Cys His Arg Gly Tyr (RHHCYKRKHHEKHHCHRGY; disulfide 4-15 (inferred)) [Db3-13]	2.6-5.1
CC(=O)N1CCN(c2ccc(OCC3COC(Cn4ccnc4)(c4ccc(Cl)cc4Cl)O3)cc2)CC1 (centres unmarked) [Ketoconazole, reference compound]	4.7
Arg His His Cys Tyr Lys Arg Lys Cys His Glu Lys His His Cys His Arg Cys Tyr (RHHCYKRKCHEKHHCHRCY; also: cyclic analogue, ring not given here) [Db2-100]	0.63-1.25
Arg His His Gly Cys Lys Arg Lys Phe His Glu Lys His His Ser Cys Arg Gly Tyr (RHHGCKRKFHEKHHSCRGY; disulfide 5-16 (inferred)) [Db3-11]	2.5-5
Arg His His Cys Trp Lys Arg Lys Phe His Glu Lys His His Cys His Arg Gly Tyr (RHHCWKRKFHEKHHCHRGY; disulfide 4-15 (inferred)) [Db3-67]	0.67-1.34
Arg His His Gly Cys Lys Arg Lys Phe His Glu Lys His His Cys His Arg Gly Tyr (RHHGCKRKFHEKHHCHRGY; disulfide 5-15 (inferred)) [Db2-178]	2.5-5
Arg His His Cys Tyr Lys Arg Lys Phe His Glu Lys His His Cys His (RHHCYKRKFHEKHHCH; disulfide 4-15 (inferred)) [Db3-25]	>5.2
Arg His His Gly Tyr Cys Arg Lys Phe His Glu Lys His His Cys His Arg Gly Tyr (RHHGYCRKFHEKHHCHRGY; disulfide 6-15 (inferred)) [Db2-179]	2.5-5
Arg His His Cys Tyr Lys Arg Lys Phe His Glu Lys His His Cys His Arg Gly Tyr [Db3-53] (RHHCYKRKFHEKHHCHRGY; also: cyclic analogue, ring not given here)	>5
Arg His His Cys Tyr Lys Arg Lys Phe His Glu Lys His His Cys His Arg (RHHCYKRKFHEKHHCHR; also: cyclic analogue, ring not given here) [Db3-15]	2.6-5.2
RHHCYRKFHEKHHC (cysteine pairing not given here) [Db3-30]	>5.2
Arg His His Cys Tyr Lys Arg Lys Phe His Glu Lys His His Cys His Arg Gly Tyr [Db3-35] (RHHCYKRKFHEKHHCHRGY; also: cyclic analogue, ring not given here)	1.3-2.5

Same assay, conditions: against S. cerevisiae

Molecule	times more potent than H-5	times more potent than ketoconazole
N=C(N)NCCC[C@H](NC(=O)[C@H](Cc1c[nH]cn1)NC(=O)[C@@H]1CSSC[C@H](NC(=O)[C@H](Cc2c[nH]cn2)NC(=O)[C@H](Cc2c[nH]cn2)NC(=O)[C@@H](N)CCCNC(=N)N)C(=O)N[C@@H](Cc2ccc(O)cc2)C(=O)N[C@@H](CCCCN)C(=O)N[C@@H](CCCNC(=N)N)C(=O)N[C@@H](CCCCN)C(=O)N[C@@H](Cc2ccccc2)C(=O)N[C@@H](Cc2c[nH]cn2)C(=O)N[C@@H](CCC(=O)O)C(=O)N[C@@H](CCCCN)C(=O)N[C@@H](Cc2c[nH]cn2)C(=O)N[C@@H](Cc2c[nH]cn2)C(=O)N1)C(=O)NCC(=O)N[C@@H](Cc1ccc(O)cc1)C(=O)O [Db2-121] (H-RHHCYKRKFHEKHHCHRGY-OH; disulfide 4-15; N-terminus assumed)	approximately 100 times	~10 times

Same assay, conditions: fungistatic activity

Molecule	MIC range
RHHKYRKFHEKHHEHRGY [Db3-41]	0.55 to 1.1 µM

Same assay, conditions: relative to Db2-121

Molecule	activity after additional deletions at the C-terminal
Arg His His Cys Tyr Lys Arg Lys Phe His Glu Lys His His Cys His Arg Gly (RHHCYKRKFHEKHHCHRG; also: cyclic analogue, ring not given here) [Db3-19]	small loss of activity
Arg His His Cys Tyr Lys Arg Lys Phe His Glu Lys His His Cys His Arg (RHHCYKRKFHEKHHCHR; also: cyclic analogue, ring not given here) [Db3-15]	small loss of activity
